In PubChem BioAssay (NCI):
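96-well plates; 48 h exposure; 5 concentrations. Endpoints by linear interpolation between flanking doses. Not reached: highest tested concentration assigned. Definition used: TGI = concentration required for complete inhibition of growth.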

Key:
Assay in all cases: NCI tumour cell line growth inhibition, 48 h
A498 renal = system: A498 renal
A549 NSCLC = system: A549 NSCLC
CAKI-1 renal = system: CAKI-1 renal
CCRF-CEM leukemia = system: CCRF-CEM leukemia
COLO 205 colon = system: COLO 205 colon
DLD-1 colon = system: DLD-1 colon
DMS 114 small cell lung = system: DMS 114 small cell lung
DMS 273 small cell lung = system: DMS 273 small cell lung
EKVX NSCLC = system: EKVX NSCLC
HCC-2998 colon = system: HCC-2998 colon
HCT-116 colon = system: HCT-116 colon
HCT-15 colon = system: HCT-15 colon
HL-60(TB) leukemia = system: HL-60(TB) leukemia
HOP-18 NSCLC = system: HOP-18 NSCLC
HOP-62 NSCLC = system: HOP-62 NSCLC
HOP-92 NSCLC = system: HOP-92 NSCLC
HT29 colon = system: HT29 colon
IGROV1 ovarian = system: IGROV1 ovarian
K-562 leukemia = system: K-562 leukemia
KM12 colon = system: KM12 colon
KM20L2 colon = system: KM20L2 colon
LOX IMVI melanoma = system: LOX IMVI melanoma
M19-MEL melanoma = system: M19-MEL melanoma
MALME-3M melanoma = system: MALME-3M melanoma
MCF7 breast = system: MCF7 breast
MOLT-4 leukemia = system: MOLT-4 leukemia
NCI-H226 lung = system: NCI-H226 lung
NCI-H23 lung = system: NCI-H23 lung
NCI-H460 lung = system: NCI-H460 lung
NCI-H522 lung = system: NCI-H522 lung
NCI/ADR-RES ovarian = system: NCI/ADR-RES ovarian
OVCAR-3 ovarian = system: OVCAR-3 ovarian
OVCAR-4 ovarian = system: OVCAR-4 ovarian
OVCAR-5 ovarian = system: OVCAR-5 ovarian
OVCAR-8 ovarian = system: OVCAR-8 ovarian
P388 leukemia = system: P388 leukemia
P388/ADR leukemia = system: P388/ADR leukemia
RPMI-8226 leukemia = system: RPMI-8226 leukemia
RXF 393 renal = system: RXF 393 renal
SF-268 CNS = system: SF-268 CNS
SF-295 CNS = system: SF-295 CNS
SF-539 CNS = system: SF-539 CNS
SK-MEL-2 melanoma = system: SK-MEL-2 melanoma
SK-MEL-28 melanoma = system: SK-MEL-28 melanoma
SK-MEL-5 melanoma = system: SK-MEL-5 melanoma
SK-OV-3 ovarian = system: SK-OV-3 ovarian
SN12C renal = system: SN12C renal
SN12K1 renal = system: SN12K1 renal
SNB-19 CNS = system: SNB-19 CNS
SNB-75 CNS = system: SNB-75 CNS
SNB-78 CNS = system: SNB-78 CNS
SW-620 colon = system: SW-620 colon
U251 CNS = system: U251 CNS
UACC-257 melanoma = system: UACC-257 melanoma
UACC-62 melanoma = system: UACC-62 melanoma
UO-31 renal = system: UO-31 renal
XF 498 CNS = system: XF 498 CNS
786-0 renal = system: 786-0 renal
ACHN renal = system: ACHN renal
LXFL 529 NSCLC = system: LXFL 529 NSCLC
M14 melanoma = system: M14 melanoma
RXF-631 renal = system: RXF-631 renal
TK-10 renal = system: TK-10 renal

Work on `CC1=CC(O)C(O)C2(C)C1CC1OC(=O)C(O)C3C(C)C(O)C4(O)OCC13C42` (centres undefined) yielded a TGI (A498 renal) of 72.1 µM, a TGI (A549 NSCLC) of 387 µM and a TGI (CAKI-1 renal) of 205 µM. For the same compound, the TGI (CCRF-CEM leukemia) was 96.9 µM, the TGI (COLO 205 colon) was 79.7 µM and the TGI (DLD-1 colon) was greater than 625 µM. For the same compound, the TGI (DMS 114 small cell lung) was 157 µM, the TGI (DMS 273 small cell lung) was greater than 567 µM and the TGI (EKVX NSCLC) was 197 µM. For the same compound, the TGI (HCC-2998 colon) was 126 µM, the TGI (HCT-116 colon) was greater than 625 µM and the TGI (HCT-15 colon) was greater than 625 µM. It also gave a TGI (HL-60(TB) leukemia) of 189 µM, a TGI (HOP-18 NSCLC) greater than 625 µM and a TGI (HOP-62 NSCLC) of 348 µM. The TGI (HOP-92 NSCLC) was 14.6 µM, the TGI (HT29 colon) was 159 µM and the TGI (IGROV1 ovarian) was 224 µM. For the same compound, the TGI (K-562 leukemia) was greater than 394 µM, the TGI (KM12 colon) was 389 µM and the TGI (KM20L2 colon) was 233 µM. The TGI (LOX IMVI melanoma) was 156 µM, the TGI (M19-MEL melanoma) was 394 µM and the TGI (MALME-3M melanoma) was 464 µM. For the same compound, the TGI (MCF7 breast) was 464 µM, the TGI (MOLT-4 leukemia) was 65.6 µM and the TGI (NCI-H226 lung) was 243 µM. It also gave a TGI (NCI-H23 lung) of 250 µM, a TGI (NCI-H460 lung) of 50 µM and a TGI (NCI-H522 lung) of 214 µM. For the same compound, the TGI (NCI/ADR-RES ovarian) was greater than 625 µM, the TGI (OVCAR-3 ovarian) was 121 µM and the TGI (OVCAR-4 ovarian) was 476 µM. The TGI (OVCAR-5 ovarian) was greater than 454 µM, the TGI (OVCAR-8 ovarian) was greater than 570 µM and the TGI (P388 leukemia) was greater than 625 µM. For the same compound, the TGI (P388/ADR leukemia) was greater than 625 µM, the TGI (RPMI-8226 leukemia) was 108 µM and the TGI (RXF 393 renal) was 51 µM. It also gave a TGI (SF-268 CNS) of 444 µM, a TGI (SF-295 CNS) of 364 µM and a TGI (SF-539 CNS) of 237 µM. The TGI (SK-MEL-2 melanoma) was 196 µM, the TGI (SK-MEL-28 melanoma) was 502 µM and the TGI (SK-MEL-5 melanoma) was 142 µM. For the same compound, the TGI (SK-OV-3 ovarian) was 359 µM, the TGI (SN12C renal) was greater than 625 µM and the TGI (SN12K1 renal) was 150 µM. It also gave a TGI (SNB-19 CNS) of 91.7 µM, a TGI (SNB-75 CNS) of 33.3 µM and a TGI (SNB-78 CNS) of 154 µM. For the same compound, the TGI (SW-620 colon) was 224 µM, the TGI (U251 CNS) was 475 µM and the TGI (UACC-257 melanoma) was 467 µM. It also gave a TGI (UACC-62 melanoma) of 341 µM, a TGI (UO-31 renal) of 518 µM and a TGI (XF 498 CNS) of 311 µM.

`OCC(O)C(O)c1nn(-c2ccccc2)c2nc3cc(Cl)c(Cl)cc3nc12` (centres undefined) showed a TGI (786-0 renal) of 68.4 µM, a TGI (A549 NSCLC) of 57.4 µM and a TGI (ACHN renal) of 75.6 µM. It also gave a TGI (CAKI-1 renal) of 41.5 µM, a TGI (CCRF-CEM leukemia) greater than 100 µM and a TGI (COLO 205 colon) of 86.4 µM. For the same compound, the TGI (DLD-1 colon) was greater than 100 µM, the TGI (DMS 114 small cell lung) was 71.4 µM and the TGI (DMS 273 small cell lung) was 56.6 µM. For the same compound, the TGI (EKVX NSCLC) was greater than 100 µM, the TGI (HCC-2998 colon) was 86.5 µM and the TGI (HCT-116 colon) was 54.4 µM. The TGI (HCT-15 colon) was greater than 100 µM, the TGI (HL-60(TB) leukemia) was 50.9 µM and the TGI (HOP-18 NSCLC) was greater than 100 µM. It also gave a TGI (HOP-62 NSCLC) greater than 100 µM, a TGI (HOP-92 NSCLC) of 82.1 µM and a TGI (HT29 colon) of 56 µM. It also gave a TGI (IGROV1 ovarian) of 90.7 µM, a TGI (K-562 leukemia) greater than 100 µM and a TGI (KM12 colon) of 81.2 µM. It also gave a TGI (KM20L2 colon) of 75.8 µM, a TGI (LOX IMVI melanoma) of 58.1 µM and a TGI (LXFL 529 NSCLC) of 70.9 µM. It also gave a TGI (M14 melanoma) greater than 100 µM, a TGI (M19-MEL melanoma) greater than 100 µM and a TGI (MALME-3M melanoma) of 44.1 µM. It also gave a TGI (MOLT-4 leukemia) greater than 100 µM, a TGI (NCI-H226 lung) of 73.6 µM and a TGI (NCI-H23 lung) greater than 100 µM. The TGI (NCI-H460 lung) was 82.1 µM, the TGI (NCI-H522 lung) was greater than 100 µM and the TGI (OVCAR-3 ovarian) was 92.1 µM. For the same compound, the TGI (OVCAR-4 ovarian) was 93.5 µM, the TGI (OVCAR-5 ovarian) was 58.4 µM and the TGI (OVCAR-8 ovarian) was 69.2 µM. For the same compound, the TGI (RPMI-8226 leukemia) was greater than 100 µM, the TGI (RXF 393 renal) was 47.4 µM and the TGI (RXF-631 renal) was 91.5 µM. It also gave a TGI (SF-268 CNS) of 80.5 µM, a TGI (SF-295 CNS) greater than 100 µM and a TGI (SF-539 CNS) of 71 µM. For the same compound, the TGI (SK-MEL-2 melanoma) was 74.1 µM, the TGI (SK-MEL-28 melanoma) was greater than 100 µM and the TGI (SK-MEL-5 melanoma) was greater than 100 µM. The TGI (SK-OV-3 ovarian) was greater than 100 µM, the TGI (SN12C renal) was greater than 100 µM and the TGI (SNB-19 CNS) was greater than 100 µM. It also gave a TGI (SNB-75 CNS) of 52 µM, a TGI (SNB-78 CNS) greater than 100 µM and a TGI (SW-620 colon) greater than 100 µM. The TGI (TK-10 renal) was 48.4 µM, the TGI (U251 CNS) was greater than 100 µM and the TGI (UACC-257 melanoma) was greater than 100 µM. It also gave a TGI (UACC-62 melanoma) greater than 100 µM, a TGI (UO-31 renal) of 63.5 µM and a TGI (XF 498 CNS) greater than 100 µM.
